For experiment [1], the system named is clonic seizures caused by pentylenetetrazole. Briefly: Protection against clonic seizures caused by pentylenetetrazole in rats. In kind it is in vivo. The following applies: Rattus norvegicus, oral, 2% starch vehicle, groups of at least 5, pentylenetetrazole 21 to 23 mg./kg. i.v. at estimated time of peak effect, read-out: Medium Effective Oral Dose ED50, protection against clonic seizures caused by pentylenetetrazole. The protocol:
The anti-anxiety properties of the active compound of the present invention has been established in a test which indicates anxiolytic activity by the measure of protection from convulsions resulting from the administration of pentylenetetrazole. Graded dose levels of the compound of this invention were administered orally, in a 2% starch vehicle, to groups of at least 5 rats. At the estimated time of peak effect, the rats were treated intravenously with pentylenetetrazole at a dose of 21 to 23 mg./kg. of body weight. This dose is estimated to cause clonic seizures in 99% of unprotected rats. The effective dose (ED50) of the test compound for protection of 50% of the animals is calculated by the method of D. H. Finney in "Statistical Methods in Biological Assay", Second Edition, Hafner Publishing Co., New York, 1964, pp. 456-457. Representative results are given in the table which follows in comparison with chlordiazepoxide and meprobamate, which were tested in exactly the same manner. It has been reported [R. T. Hill and D. H. Tedeschi, "Animal Testing and Screening Procedures in Evaluating Psychotropic Drugs" in An Introduction of Psychopharmacology, Eds. R. R. Rech and K. E. Moore, Raven Press, New York, pp. 237-288 (1971)] that there is a high degree of correlation between antagonism of pentylenetetrazole seizures in rats and anti-anxiety effects in higher warm-blooded animals.

Experiment [2] has as its system conflict situation induced in rats (number of shocks received). Briefly: Non-conditioned passive avoidance (conflict) procedure in rats. In kind it is in vivo. As to conditions: Sprague-Dawley rats, positive = 9 or more shocks in 4 to 5 minutes; for ED50: Rattus norvegicus, oral, comparison drugs tested in exactly the same manner, read-out: median effective dose (ED50). Here is the method:
Another test which has been used to assess anti-anxiety effects is a non-conditioned passive avoidance procedure described by J. R. Vogel, B. Beer and D. E. Clody, "A Simple and Reliable Conflict Procedure for Testing Anti-Anxiety Agents", Psychopharmacologia, Vol. 21, pp. 1-7 (1971). A conflict situation is induced in rats by a modification of this method. To groups of six naive Sprague-Dawley rats (200-220 grams), previously deprived of water for forty-eight hours and food for 24 hours, are administered graded oral doses of test compound suspended in 2% starch vehicle also containing 2 drops of polyethylene glycol and polysorbate 80, or vehicle alone (controls). At the time of peak effect each rat is placed in a plexiglass box fitted with a drinkometer circuit connected between the stainless steel grid floor and a stainless steel drinking tube inserted in a hole in one of the walls of the box. A stimulator supplying monophasic 60 cycle square wave pulses of 0.2 milliamperes peak intensity, a timer which allows alternate 5 second " shock free" and 5 second "shock available" periods during a 5 minute test period, an electromagnetic counter to count the number of shocks received by the rat during the shock available period and a delay of one half second between the successive shocks are incorporated into the drinkometer circuit. After the rat is placed in the box, it is allowed to explore and drink 10% dextrose solution supplied through the tap. After twenty seconds of continuous unpunished drinking, the timer and drinkometer circuits are activated and 5 second shock free and 5 second shock available periods alternate. The number of shocks received by the rat during a 5 minute test period is recorded. The percentage of rats that receive 9 or more shocks in 4 to 5 minutes at each dose level is used as positive response in calculation of the median effective dose (ED50). The estimated (ED50) for the compound 3-methyl-6-phenyl-1,2,4-triazolo[4,3-b]pyridazine after one hour from oral administration is 100 mg./kg.

As for `CCCC(C)(COC(N)=O)COC(N)=O` [Meprobamate], the ED50 was 22 mg/kg in experiment [1] and 51.9 mg/kg in experiment [2].
On to `Cc1nnc2ccc(-c3ccccc3)nn12` [3-methyl-6-phenyl-1,2,4-triazolo[4,3-b]pyridazine], for which the ED50 in experiment [1] is 3 mg/kg. For the same molecule, the “estimated median effective dose (ED50)” value in experiment [2] (one hour after oral administration) is 100 mg/kg.
With `CNC1=Nc2ccc(Cl)cc2C(c2ccccc2)=[N+]([O-])C1` [Chlordiazepoxide], the ED50 is 2.5 mg/kg in experiment [1] and 9.6 mg/kg in experiment [2].

The values are drawn from patent US4062958A, “Method of treating anxiety and compositions therefor” (American Cyanamid Company, priority 1976, dated 1977).
